In US6846492B2, “Use of phenylethylamine derivatives for the antimicrobial treatment of surfaces” (Ciba Specialty Chemicals Corporation, priority 2000, dated 2005):
Values after ≈ are worked out from the molar mass of the structure shown.

How the values were obtained:
Type in all cases: cell-based
[1] = system: Aspergillus niger ATCC 6275 (= AN); assay: MIC determination in microtiter plates, Aspergillus niger; settings: 5 days at 28° C.; for MIC [ppm] AN: Tables 2a/2b, ≦20% growth, optical density 620 nm, some approximate values
Procedure: (§1) Determination of the Minimum Inhibitory Concentration (MIC Value) in Microtiter Plates
(§2) Casein/soybean flour peptone bouillon for the preparation of pre-cultures of the test bacteria and yeast.
(§3) Mycological slant agar for the pre-culture of moulds
(§4) The test substances are pre-dissolved in dimethyl sulfoxide (DMSO) and tested in a dilution series of 1:2.
(§5) Bacteria and yeast are cultured overnight in CASO bouillon, the mould is cultured overnight on mycological slant agar, and washed off with 10 ml of 0.85% sodium chloride solution (+0.1% TritonX-100).
(§6) All the test organisms are adjusted to an organism count of 1−5×10^6 CFU/ml using 0.85% sodium chloride solution.
(§7) The test substances are pre-pipetted into microtiter plates in an amount of 8 μl per well.
(§8) Pre-diluted organism suspensions are diluted 1:100 in CASO bouillon (bacteria and yeast) or Sabouraud 2% glucose bouillon (mould) and are added in an amount of 192 μl per well to the test substances.
(§9) The test batches are incubated for 48 hours at 37° C. (bacteria and yeast) or for 5 days at 28° C. (mould).
(§10) After incubation, the growth is evaluated by reference to the turbidity of the test batches (optical density) at 620 nm in a microplate reader.
(§11) One microtiter plate is used for each test organism and substance concentration. All the substances are tested in duplicate.

[2] = system: Epidermophyton floccosum DSM 10709; assay: MIC determination in microtiter plates, Epidermophyton floccosum; settings: DSM10709, 120 h, Table 2c, 5 days at 28° C., read-out: MIC [ppm] Epidermophyton floccosum DSM 10709
Procedure: as §1, §2, §3, §4, §5, §6, §7, §8, §9, §10, §11

[3] = system: Staphylococcus hominis DMS 20328 (= SH); assay: MIC determination in microtiter plates, Staphylococcus hominis; settings: 48 hours at 37° C.; for MIC [ppm] SH: Tables 2a/2b, ≦20% growth, optical density 620 nm, tested at 120, 60, 30, 15, 7.5 and 3.5 ppm, some approximate
Procedure: as §1, §2, §3, §4, §5, §6, §7, §8, §9, §10, §11

[4] = system: Actinomyces viscosum DSM 43329; assay: MIC determination in microtiter plates, Actinomyces viscosum; settings: DSM43329, Table 2c, 48 hours at 37° C., read-out: MIC [ppm] Actinomyces viscosum DSM 43329
Procedure: as §1, §2, §3, §4, §5, §6, §7, §8, §9, §10, §11

[5] = system: Staphylococcus aureus ATCC 9144; assay: MIC determination in microtiter plates, Staphylococcus aureus; settings: ATCC9144, Table 2c, 48 hours at 37° C., read-out: MIC [ppm] Staphylococcus aureus ATCC 9144
Procedure: as §1, §2, §3, §4, §5, §6, §7, §8, §9, §10, §11

[6] = system: Streptococcus mutans ATCC 25175; assay: MIC determination in microtiter plates, Streptococcus mutans; settings: ATCC25175, Table 2c, 48 hours at 37° C., read-out: MIC [ppm] Streptococcus mutans ATCC 25175
Procedure: as §1, §2, §3, §4, §5, §6, §7, §8, §9, §10, §11

[7] = system: Candida albicans ATCC 10231 (= CA); assay: MIC determination in microtiter plates, Candida albicans; settings: 48 hours at 37° C.; for MIC [ppm] CA: Tables 2a/2b, ≦20% growth, optical density 620 nm, some approximate values
Procedure: as §1, §2, §3, §4, §5, §6, §7, §8, §9, §10, §11

[8] = system: Propionibacterium acnes ATCC11829; assay: MIC determination in microtiter plates, Propionibacterium acnes; settings: Cutibacterium acnes, ATCC11829; Table 2c; 48 hours at 37° C.; read-out: MIC [ppm] Propionibacterium acnes ATCC11829
Procedure: as §1, §2, §3, §4, §5, §6, §7, §8, §9, §10, §11

[9] = system: Streptococcus sobrinus DSM 20742; assay: MIC determination in microtiter plates, Streptococcus sobrinus; settings: DSM20742, Table 2c, 48 hours at 37° C., read-out: MIC [ppm] Streptococcus sobrinus DSM 20742
Procedure: as §1, §2, §3, §4, §5, §6, §7, §8, §9, §10, §11

[10] = system: Corynebacterium xerosis ATCC 373; assay: MIC determination in microtiter plates, Corynebacterium xerosis; settings: ATCC373, Table 2c, 48 hours at 37° C., read-out: MIC [ppm] Corynebacterium xerosis ATCC 373
Procedure: as §1, §2, §3, §4, §5, §6, §7, §8, §9, §10, §11

[11] = system: Porphyromonas gingivalis DSM 20709; assay: MIC determination in microtiter plates, Porphyromonas gingivalis; settings: DSM20709, Table 2c, 48 hours at 37° C., read-out: MIC [ppm] Porphyromonas gingivalis DSM 20709
Procedure: as §1, §2, §3, §4, §5, §6, §7, §8, §9, §10, §11

[12] = system: Enterococcus hirae ATCC 10541; assay: MIC determination in microtiter plates, Enterococcus hirae; settings: ATCC10541, Table 2c, 48 hours at 37° C., read-out: MIC [ppm] Enterococcus hirae ATCC 10541
Procedure: as §1, §2, §3, §4, §5, §6, §7, §8, §9, §10, §11

[13] = system: Staphylococcus epidermidis ATCC 12228; assay: MIC determination in microtiter plates, Staphylococcus epidermidis; settings: ATCC12228, Table 2c, 48 hours at 37° C., read-out: MIC [ppm] Staphylococcus epidermidis ATCC 12228
Procedure: as §1, §2, §3, §4, §5, §6, §7, §8, §9, §10, §11

[14] = system: Pseudomonas aeruginosa CIP A-22 (= PA); assay: MIC determination in microtiter plates, Pseudomonas aeruginosa; settings: Tables 2a/2b, 48 hours at 37° C., ≦20% growth, optical density 620 nm, some approximate values
Procedure: as §1, §2, §3, §4, §5, §6, §7, §8, §9, §10, §11

[15] = system: Escherichia coli NCTC 8196 (= EC); assay: MIC determination in microtiter plates, Escherichia coli; settings: Tables 2a/2b, 48 hours at 37° C., ≦20% growth, optical density 620 nm, some approximate values
Procedure: as §1, §2, §3, §4, §5, §6, §7, §8, §9, §10, §11

CCCCCCCCCCCCOc1ccc(CCN)cc1OC [Compound 100, 1-Amino-2-(4-dodecyloxy-3-methoxyphenyl)ethane]
MIC ([1]; ATCC6275, 120 h, Table 2c, read-out: MIC [ppm] Aspergillus niger ATCC 6275): 2 µg/mL (≈ 5.96 µM)
MIC [2]: 3 µg/mL (≈ 8.94 µM)
MIC ([3]; DSM20328, Table 2c, read-out: MIC [ppm] Staphylococcus hominis DSM 20328): 2 µg/mL (≈ 5.96 µM)
MIC [4]: 25 µg/mL (≈ 74.5 µM)
MIC [5]: 25 µg/mL (≈ 74.5 µM)
MIC [6]: 6 µg/mL (≈ 17.9 µM)
MIC ([7]; ATCC10231, Table 2c, read-out: MIC [ppm] Candida albicans ATC 10231): 2 µg/mL (≈ 5.96 µM)
MIC [8]: 50 µg/mL (≈ 149 µM)
MIC [9]: 6 µg/mL (≈ 17.9 µM)
MIC [10]: 6 µg/mL (≈ 17.9 µM)
MIC [11]: 25 µg/mL (≈ 74.5 µM)
MIC [12]: 25 µg/mL (≈ 74.5 µM)
MIC [13]: 13 µg/mL (≈ 38.7 µM)

NCCc1cc(OCC(=O)c2ccc(F)cc2)c(OCC(=O)c2ccc(F)cc2)c(OCC(=O)c2ccc(F)cc2)c1 [Compound 99]
MIC [ppm] PA [14]: >120 ppm
MIC [ppm] AN [1]: >120 ppm
MIC [ppm] SH [3]: 60 ppm
MIC [ppm] CA [7]: >120 ppm
MIC [ppm] EC [15]: 60 ppm

NCCc1ccc(OCC(=O)OCc2ccccc2)c(OCC(=O)OCc2ccccc2)c1 [Compound 26]
MIC [ppm] PA [14]: >120 ppm
MIC [ppm] AN [1]: >120 ppm
MIC [ppm] SH [3]: >120 ppm
MIC [ppm] CA [7]: >120 ppm
MIC [ppm] EC [15]: >120 ppm

CC(C)(C)c1ccc(COc2cc(CCN)cc(OCc3ccc(C(C)(C)C)cc3)c2OCc2ccc(C(C)(C)C)cc2)cc1 [Compound 69]
MIC [ppm] PA [14]: >120 ppm
MIC [ppm] AN [1]: >120 ppm
MIC [ppm] SH [3]: >120 ppm
MIC [ppm] CA [7]: >120 ppm
MIC [ppm] EC [15]: >120 ppm

COc1cccc(COc2ccc(CCN)cc2OCc2cccc(OC)c2)c1 [Compound 4]
MIC [ppm] PA [14]: >120 ppm
MIC [ppm] AN [1]: 7.5 ppm
MIC [ppm] SH [3]: 30 ppm
MIC [ppm] CA [7]: 60 ppm
MIC [ppm] EC [15]: 60 ppm

NCCc1cc(OCc2ccc3ccccc3c2)c(OCc2ccc3ccccc3c2)c(OCc2ccc3ccccc3c2)c1 [Compound 71]
MIC [ppm] PA [14]: >120 ppm
MIC [ppm] AN [1]: >120 ppm
MIC [ppm] SH [3]: >120 ppm
MIC [ppm] CA [7]: >120 ppm
MIC [ppm] EC [15]: >120 ppm

NCCc1cc(OC2CCCC2)c(OC2CCCC2)c(OC2CCCC2)c1 [Compound 92]
MIC [ppm] PA [14]: >120 ppm
MIC [ppm] AN [1]: 120 ppm
MIC [ppm] SH [3]: 15 ppm
MIC [ppm] CA [7]: 60 ppm
MIC [ppm] EC [15]: 15 ppm

NCCc1cc(OCc2ccccc2)c(OCc2ccccc2)c(OCc2ccccc2)c1 [Compound 70]
MIC [ppm] PA [14]: >120 ppm
MIC [ppm] AN [1]: >120 ppm
MIC [ppm] SH [3]: 7.5 ppm
MIC [ppm] CA [7]: 15 ppm
MIC [ppm] EC [15]: 7.5 ppm

CCOC(=O)CCCOc1cc(CCN)cc(OCCCC(=O)OCC)c1OCCCC(=O)OCC [Compound 78]
MIC [ppm] PA [14]: >120 ppm
MIC [ppm] AN [1]: >120 ppm
MIC [ppm] SH [3]: >120 ppm
MIC [ppm] CA [7]: >120 ppm
MIC [ppm] EC [15]: >120 ppm

C=CCCCOc1ccc(CCN)cc1OCCCC=C [Compound 44]
MIC [ppm] PA [14]: >120 ppm
MIC [ppm] AN [1]: >120 ppm
MIC [ppm] SH [3]: 60 ppm
MIC [ppm] CA [7]: 60 ppm
MIC [ppm] EC [15]: 60 ppm

CC(C)Oc1cc(CCN)cc(OC(C)C)c1OC(C)C [Compound 82]
MIC [ppm] PA [14]: >120 ppm
MIC [ppm] AN [1]: >120 ppm
MIC [ppm] SH [3]: >120 ppm
MIC [ppm] CA [7]: >120 ppm
MIC [ppm] EC [15]: >120 ppm

NCCc1ccc(OCc2cccc(F)c2)c(OCc2cccc(F)c2)c1 [Compound 16]
MIC [ppm] PA [14]: 120 ppm
MIC [ppm] AN [1]: >120 ppm
MIC [ppm] SH [3]: 7.5 ppm
MIC [ppm] CA [7]: 7.5 ppm
MIC [ppm] EC [15]: 7.5 ppm

CCCOC(=O)COc1cc(CCN)cc(OCC(=O)OCCC)c1OCC(=O)OCCC [Compound 74]
MIC [ppm] PA [14]: >120 ppm
MIC [ppm] AN [1]: >120 ppm
MIC [ppm] SH [3]: >120 ppm
MIC [ppm] CA [7]: >120 ppm
MIC [ppm] EC [15]: >120 ppm

NCCc1ccc(OCc2ccc(F)cc2)c(OCc2ccc(F)cc2)c1 [Compound 17]
MIC [ppm] PA [14]: >120 ppm
MIC [ppm] AN [1]: >120 ppm
MIC [ppm] SH [3]: 12 ppm
MIC [ppm] CA [7]: 60 ppm
MIC [ppm] EC [15]: 24 ppm

CCOC(=O)CCCCOc1ccc(CCN)cc1OCCCCC(=O)OCC [Compound 28]
MIC [ppm] PA [14]: >120 ppm
MIC [ppm] AN [1]: >120 ppm
MIC [ppm] SH [3]: >120 ppm
MIC [ppm] CA [7]: >120 ppm
MIC [ppm] EC [15]: >120 ppm

NCCc1cc(OCc2ccccc2F)c(OCc2ccccc2F)c(OCc2ccccc2F)c1 [Compound 66]
MIC [ppm] PA [14]: >120 ppm
MIC [ppm] AN [1]: >120 ppm
MIC [ppm] SH [3]: 15 ppm
MIC [ppm] CA [7]: 120 ppm
MIC [ppm] EC [15]: 15 ppm

CCC(CC)Oc1cc(CCN)cc(OC(CC)CC)c1OC(CC)CC [Compound 86]
MIC [ppm] PA [14]: >120 ppm
MIC [ppm] AN [1]: 30 ppm
MIC [ppm] SH [3]: 7.5 ppm
MIC [ppm] CA [7]: 60 ppm
MIC [ppm] EC [15]: 15 ppm

CCOC(=O)CCCCOc1cc(CCN)cc(OCCCCC(=O)OCC)c1OCCCCC(=O)OCC [Compound 79]
MIC [ppm] PA [14]: >120 ppm
MIC [ppm] AN [1]: 120 ppm
MIC [ppm] SH [3]: >120 ppm
MIC [ppm] CA [7]: >120 ppm
MIC [ppm] EC [15]: >120 ppm
